The experiment concerns the target G-protein coupled receptor 55 (Homo sapiens, UniProt Q9Y2T6). In words: GPR55 agonists via beta-arrestin recruitment, primary screen, imaging, U2OS cells, beta-arrestin-GFP redistribution (AID 1961).
G-protein coupled receptor 55, sequence (Q9Y2T6 whole entry): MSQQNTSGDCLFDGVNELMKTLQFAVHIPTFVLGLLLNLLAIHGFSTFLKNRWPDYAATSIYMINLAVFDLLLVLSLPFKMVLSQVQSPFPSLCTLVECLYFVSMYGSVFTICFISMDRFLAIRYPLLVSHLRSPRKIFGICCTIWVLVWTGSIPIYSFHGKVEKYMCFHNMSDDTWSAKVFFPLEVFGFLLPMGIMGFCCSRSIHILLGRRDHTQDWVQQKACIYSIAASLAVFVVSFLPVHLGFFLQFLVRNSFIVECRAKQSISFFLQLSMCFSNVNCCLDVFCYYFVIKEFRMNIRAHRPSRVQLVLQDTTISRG
As usually defined, the EC50 is the concentration that produces a half-maximal response. `COc1ccc(C2c3sc4nc(C)cc(C)c4c3OC(=N)C2C#N)cc1` (configuration not stated) [2-amino-4-(4-methoxyphenyl)-7,9-dimethyl-4H-pyrano[2',3':4,5]thieno[2,3-b]pyridine-3-carbonitrile]: the response was half-maximal at 3.41 µM (EC50).

On to `C=c1[nH]n(-c2ccc(C(=O)O)cc2)c(=O)c1=Cc1ccc(-c2ccccc2F)o1` [4-((4E)-4-{[5-(2-fluorophenyl)-2-furyl]methylene}-3-methyl-5-oxo-4,5-dihydro-1H-pyrazol-1-yl)benzoic acid], for which the EC50 worked out at 21.3 µM.

On to `COC1=CC(=Cc2c(-c3ccccc3)[nH]oc2=O)C=C(Cl)C1=O` [4-[(Z)-(3-chloro-5-methoxy-4-oxo-1-cyclohexa-2,5-dienylidene)methyl]-3-phenyl-2H-isoxazol-5-one], for which a half-maximal response (EC50) required 32 µM.

In turn, `Cc1ccc(NS(=O)(=O)c2cc([N+](=O)[O-])ccc2N=NCc2sc(N3CCOCC3)nc2-c2ccccc2)c(C)c1` [MLS000408840] yielded an EC50 of 0.5 µM.

In the case of `CC(C)CN1C(=O)/C(=N\NC(=O)c2cccc(S(=O)(=O)N3CCCCC3)c2)c2ccccc21` [MLS000417389], the EC50 came to 4.75 µM.

`N#CC1C(=O)NC(c2ccc(-c3cc(Cl)ccc3Cl)o2)N(c2ccccc2)C1=S` (configuration not stated) [MLS000592167] registered a half-maximal effective concentration (EC50) of 32 µM.

On to `N#CC1C(=N)OC2=C(CC/C2=C\c2ccccc2)C1c1ccccc1` (configuration not stated) [SMR000176483], for which it took 32 µM to reach a half-maximal effect (EC50). This lies in the double-digit micromolar range.

Source of the values: BindingDB's records for doi:10.7270/Q2GF0RZ3 (Burnham Center For Chemical Genomics, 2010).
